Source: the supplement of paper PMC11919725

Tests used:
[1] = tested on: Jurkat; assay: confluency relative to DMSO, 18 h (ratio); higher = more viable
Procedure, shortened: (§1)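 Jurkat or primary CD4+/CD8+ T cells (naive, or activated 48 h with CD3/CD28 Dynabeads) were treated 18 h with compound at 1 nM–10 µM (log10 steps) at 37 °C, 5% CO2. Then 100 µl of suspension went into 96-well plates with IncuCyte Cytotox Dye and alamarBlue. Confluency came from IncuCyte phase-contrast imaging (×10, five images per well, hourly over 3 h) using the Basic Analyzer. Values are normalised to mean DMSO controls.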

[2] = tested on: Primary T cells CD4+ activated; assay: as above
Procedure, shortened: as §1

[3] = tested on: Primary T cells CD4+ naive; assay: as above
Procedure, shortened: as §1

[4] = tested on: Primary T cells CD8+ activated; assay: as above
Procedure, shortened: as §1

[5] = tested on: Primary T cells CD8+ naive; assay: as above
Procedure, shortened: as §1

[6] = tested on: Jurkat; assay: metabolic activity relative to DMSO, 18 h (ratio); higher = more viable
Procedure, shortened: (§2)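 Metabolic activity was expressed relative to the mean of vehicle control wells. Jurkat cells or primary CD4+/CD8+ T cells, either naive or activated for 48 h with CD3/CD28 Dynabeads, were exposed to compound from 1 nM to 10 µM in log10 steps for 18 h at 37 °C, 5% CO2. Aliquots of 100 µl of suspension were moved to 96-well plates containing alamarBlue (10% v/v final), and fluorescence was read after 3.5 h on a FluoStar Omega at excitation 544 nm and emission 584 nm.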

[7] = tested on: Primary T cells CD4+ activated; assay: as above
Procedure, shortened: as §2

[8] = tested on: Primary T cells CD4+ naive; assay: as above
Procedure, shortened: as §2

[9] = tested on: Primary T cells CD8+ activated; assay: as above
Procedure, shortened: as §2

[10] = tested on: Primary T cells CD8+ naive; assay: as above
Procedure, shortened: as §2

[11] = tested on: Jurkat; assay: cytotoxicity relative to DMSO, 18 h (ratio); higher = less cell death (drugs called cytotoxic fall below 1)
Procedure, shortened: (§3)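 Fluorescence was imaged at ×10, five images per well, every hour for 3 h, in 96-well plates holding 100 µl of treated cell suspension and IncuCyte Cytotox Dye at 250 nM final. Before plating, Jurkat cells or primary CD4+/CD8+ T cells (naive, or activated 48 h with CD3/CD28 Dynabeads) had been treated for 18 h with compound across 1 nM–10 µM in log10 steps at 37 °C, 5% CO2. Cytotoxicity values were based on these IncuCyte signals after confluency correction and normalisation to the mean of control wells.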

[12] = tested on: Primary T cells CD4+ activated; assay: as above
Procedure, shortened: as §3

[13] = tested on: Primary T cells CD4+ naive; assay: as above
Procedure, shortened: as §3

[14] = tested on: Primary T cells CD8+ activated; assay: as above
Procedure, shortened: as §3

[15] = tested on: Primary T cells CD8+ naive; assay: as above
Procedure, shortened: as §3

Cc1[nH]c2ccccc2c1CCNCc1ccc(C=CC(=O)NO)cc1 [Panobinostat]
confluency ([1]; 1 nM): 0.912 | confluency ([1]; 10 nM): 0.937 | confluency ([1]; 100 nM): 1.01 | confluency ([1]; 1000 nM): 0.992 | confluency ([1]; 10000 nM): 0.978 | confluency ([2]; 1 nM): 1.04 | confluency ([2]; 10 nM): 1.01 | confluency ([2]; 100 nM): 1.17 | confluency ([2]; 1000 nM): 1.35 | confluency ([2]; 10000 nM): 1.02 | confluency ([3]; 1 nM): 1.2 | confluency ([3]; 10 nM): 1.02 | confluency ([3]; 100 nM): 1.29 | confluency ([3]; 1000 nM): 1.13 | confluency ([3]; 10000 nM): 0.869 | confluency ([4]; 1 nM): 0.974 | confluency ([4]; 10 nM): 0.886 | confluency ([4]; 100 nM): 1.04 | confluency ([4]; 1000 nM): 1.26 | confluency ([4]; 10000 nM): 1.21 | confluency ([5]; 1 nM): 1.19 | confluency ([5]; 10 nM): 0.473 | confluency ([5]; 100 nM): 1.08 | confluency ([5]; 1000 nM): 0.774 | confluency ([5]; 10000 nM): 0.932 | metabolic activity ([6]; 1 nM): 1.05 | metabolic activity ([6]; 10 nM): 0.782 | metabolic activity ([6]; 100 nM): 0.681 | metabolic activity ([6]; 1000 nM): 0.72 | metabolic activity ([6]; 10000 nM): 0.849 | metabolic activity ([7]; 1 nM): 0.998 | metabolic activity ([7]; 10 nM): 0.826 | metabolic activity ([7]; 100 nM): 0.627 | metabolic activity ([7]; 1000 nM): 0.616 | metabolic activity ([7]; 10000 nM): 0.875 | metabolic activity ([8]; 1 nM): 0.856 | metabolic activity ([8]; 10 nM): 0.957 | metabolic activity ([8]; 100 nM): 0.728 | metabolic activity ([8]; 1000 nM): 0.726 | metabolic activity ([8]; 10000 nM): 0.813 | metabolic activity ([9]; 1 nM): 1 | metabolic activity ([9]; 10 nM): 0.909 | metabolic activity ([9]; 100 nM): 0.738 | metabolic activity ([9]; 1000 nM): 0.725 | metabolic activity ([9]; 10000 nM): 0.778 | metabolic activity ([10]; 1 nM): 0.913 | metabolic activity ([10]; 10 nM): 0.881 | metabolic activity ([10]; 100 nM): 0.836 | metabolic activity ([10]; 1000 nM): 0.779 | metabolic activity ([10]; 10000 nM): 0.766 | cytotoxicity ([11]; 1 nM): 0.94 | cytotoxicity ([11]; 10 nM): 0.843 | cytotoxicity ([11]; 100 nM): 0.933 | cytotoxicity ([11]; 1000 nM): 0.873 | cytotoxicity ([11]; 10000 nM): 0.921 | cytotoxicity ([12]; 1 nM): 1.04 | cytotoxicity ([12]; 10 nM): 1.08 | cytotoxicity ([12]; 100 nM): 1.32 | cytotoxicity ([12]; 1000 nM): 1.5 | cytotoxicity ([12]; 10000 nM): 0.92 | cytotoxicity ([13]; 1 nM): 1.29 | cytotoxicity ([13]; 10 nM): 0.906 | cytotoxicity ([13]; 100 nM): 1.33 | cytotoxicity ([13]; 1000 nM): 1.19 | cytotoxicity ([13]; 10000 nM): 0.853 | cytotoxicity ([14]; 1 nM): 0.993 | cytotoxicity ([14]; 10 nM): 0.888 | cytotoxicity ([14]; 100 nM): 1.11 | cytotoxicity ([14]; 1000 nM): 1.34 | cytotoxicity ([14]; 10000 nM): 1.3 | cytotoxicity ([15]; 1 nM): 1.34 | cytotoxicity ([15]; 10 nM): 0.493 | cytotoxicity ([15]; 100 nM): 1.16 | cytotoxicity ([15]; 1000 nM): 0.814 | cytotoxicity ([15]; 10000 nM): 1.06

CCCCc1nc2cc(C=CC(=O)NO)ccc2n1CCN(CC)CC [Pracinostat]
confluency ([1]; 1 nM): 0.945 | confluency ([1]; 10 nM): 0.95 | confluency ([1]; 100 nM): 0.862 | confluency ([1]; 1000 nM): 1.04 | confluency ([1]; 10000 nM): 0.908 | confluency ([3]; 1 nM): 0.744 | confluency ([3]; 10 nM): 1.13 | confluency ([3]; 100 nM): 1.29 | confluency ([3]; 1000 nM): 1.05 | confluency ([3]; 10000 nM): 0.873 | metabolic activity ([6]; 1 nM): 1.09 | metabolic activity ([6]; 10 nM): 0.964 | metabolic activity ([6]; 100 nM): 1.03 | metabolic activity ([6]; 1000 nM): 0.737 | metabolic activity ([6]; 10000 nM): 0.621 | metabolic activity ([8]; 1 nM): 0.982 | metabolic activity ([8]; 10 nM): 0.951 | metabolic activity ([8]; 100 nM): 0.917 | metabolic activity ([8]; 1000 nM): 0.946 | metabolic activity ([8]; 10000 nM): 0.877 | cytotoxicity ([11]; 1 nM): 0.918 | cytotoxicity ([11]; 10 nM): 0.836 | cytotoxicity ([11]; 100 nM): 0.799 | cytotoxicity ([11]; 1000 nM): 1.02 | cytotoxicity ([11]; 10000 nM): 0.852 | cytotoxicity ([13]; 1 nM): 0.794 | cytotoxicity ([13]; 10 nM): 1.19 | cytotoxicity ([13]; 100 nM): 1.38 | cytotoxicity ([13]; 1000 nM): 1.03 | cytotoxicity ([13]; 10000 nM): 0.897

Nc1cc(F)ccc1NC(=O)c1ccc(CNC(=O)C=Cc2cccnc2)cc1 [Tucidinostat]
confluency ([1]; 1 nM): 1 | confluency ([1]; 10 nM): 0.981 | confluency ([1]; 100 nM): 0.912 | confluency ([1]; 1000 nM): 0.878 | confluency ([1]; 10000 nM): 1.03 | confluency ([3]; 1 nM): 1.08 | confluency ([3]; 10 nM): 1.18 | confluency ([3]; 100 nM): 1.3 | confluency ([3]; 1000 nM): 1.26 | confluency ([3]; 10000 nM): 0.617 | metabolic activity ([6]; 1 nM): 0.891 | metabolic activity ([6]; 10 nM): 0.945 | metabolic activity ([6]; 100 nM): 0.974 | metabolic activity ([6]; 1000 nM): 0.952 | metabolic activity ([6]; 10000 nM): 0.882 | metabolic activity ([8]; 1 nM): 0.862 | metabolic activity ([8]; 10 nM): 1.05 | metabolic activity ([8]; 100 nM): 0.872 | metabolic activity ([8]; 1000 nM): 0.881 | metabolic activity ([8]; 10000 nM): 0.697 | cytotoxicity ([11]; 1 nM): 1.08 | cytotoxicity ([11]; 10 nM): 0.992 | cytotoxicity ([11]; 100 nM): 0.929 | cytotoxicity ([11]; 1000 nM): 0.871 | cytotoxicity ([11]; 10000 nM): 0.987 | cytotoxicity ([13]; 1 nM): 1.13 | cytotoxicity ([13]; 10 nM): 1.05 | cytotoxicity ([13]; 100 nM): 1.42 | cytotoxicity ([13]; 1000 nM): 1.19 | cytotoxicity ([13]; 10000 nM): 0.636

O=C(CCCCCCC(=O)Nc1ccccc1)NO [Vorinostat]
confluency ([1]; 1 nM): 1.03 | confluency ([1]; 10 nM): 1 | confluency ([1]; 100 nM): 1.14 | confluency ([1]; 1000 nM): 1.11 | confluency ([1]; 10000 nM): 1.36 | metabolic activity ([6]; 1 nM): 0.947 | metabolic activity ([6]; 10 nM): 0.907 | metabolic activity ([6]; 100 nM): 0.815 | metabolic activity ([6]; 1000 nM): 0.809 | metabolic activity ([6]; 10000 nM): 0.764 | metabolic activity ([7]; 1 nM): 0.849 | metabolic activity ([7]; 10 nM): 0.979 | metabolic activity ([7]; 100 nM): 0.964 | metabolic activity ([7]; 1000 nM): 0.945 | metabolic activity ([7]; 10000 nM): 0.788 | metabolic activity ([8]; 1 nM): 0.859 | metabolic activity ([8]; 10 nM): 0.862 | metabolic activity ([8]; 100 nM): 0.902 | metabolic activity ([8]; 1000 nM): 1.02 | metabolic activity ([8]; 10000 nM): 0.913

CN1CC=CCCOc2cccc(c2)-c2ccnc(n2)Nc2cccc(c2)C1 [Zotiraciclib]
confluency ([1]; 1 nM): 0.992 | confluency ([1]; 10 nM): 0.992 | confluency ([1]; 100 nM): 0.923 | confluency ([1]; 1000 nM): 0.908 | confluency ([1]; 10000 nM): 0.882 | metabolic activity ([6]; 1 nM): 1.03 | metabolic activity ([6]; 10 nM): 0.912 | metabolic activity ([6]; 100 nM): 0.094 | metabolic activity ([6]; 1000 nM): 0.085 | metabolic activity ([6]; 10000 nM): 0.05 | cytotoxicity ([11]; 1 nM): 0.95 | cytotoxicity ([11]; 10 nM): 0.924 | cytotoxicity ([11]; 100 nM): 0.468 | cytotoxicity ([11]; 1000 nM): 0.473 | cytotoxicity ([11]; 10000 nM): 0.436
